Assay results reported in the supplement of paper PMC10307832.

Experiments:
Assay in all cases: relative viability (nuclei count vs DMSO), 5 days (fraction); higher = more cells survive
NCI-H522 = tested on: NCI-H522
In short: (§1)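 Lung cancer cell lines in 1536-well plates got either a single drug or a fixed anchor-drug dose together with five library-drug doses (not always all listed) in √10 steps, by pin tool, on the day after seeding. Nuclei were counted after 5 days, and relative viability is the treated-to-vehicle ratio of nuclei counts. Values are medians of duplicate plates.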

CAL-12T = tested on: CAL-12T
In short: as §1

NCI-H1944 = tested on: NCI-H1944
In short: as §1

NCI-H1395 = tested on: NCI-H1395
In short: as §1

LC-2-ad = tested on: LC-2-ad
In short: as §1

NCI-H1734 = tested on: NCI-H1734
In short: as §1

HCC-15 = tested on: HCC-15
In short: as §1

LU99A = tested on: LU99A
In short: as §1

COR-L 105 = tested on: COR-L 105
In short: as §1

PC-14 = tested on: PC-14
In short: as §1

NCI-H1975 = tested on: NCI-H1975
In short: as §1

H3255 = tested on: H3255
In short: as §1

NCI-H1666 = tested on: NCI-H1666
In short: as §1

PC-3 [JPC-3] = tested on: PC-3 [JPC-3]
In short: as §1

NCI-H520 = tested on: NCI-H520
In short: as §1

NCI-H3122 = tested on: NCI-H3122
In short: as §1

NCI-H647 = tested on: NCI-H647
In short: as §1

NCI-H1563 = tested on: NCI-H1563
In short: as §1

NCI-H661 = tested on: NCI-H661
In short: as §1

NCI-H838 = tested on: NCI-H838
In short: as §1

NCI-H1993 = tested on: NCI-H1993
In short: as §1

SK-LU-1 = tested on: SK-LU-1
In short: as §1

HARA = tested on: HARA
In short: as §1

NCI-H2228 = tested on: NCI-H2228
In short: as §1

Molecule CCCCCCCCCCCC1=C(O)C(=O)C=C(O)C1=O [Embelin] + CCNC(=O)c1noc(-c2cc(C(C)C)c(O)cc2O)c1-c1ccc(CN2CCOCC2)cc1 [Luminespib] (partner 0.01 µM) has a relative viability (NCI-H522; first compound 0.08 µM) of 1.26, a relative viability (NCI-H522; first compound 0.8 µM) of 1.2 and a relative viability (NCI-H522; first compound 2.53 µM) of 1.34. It also gave a relative viability (NCI-H522; first compound 8 µM) of 1.12, a relative viability (CAL-12T; first compound 0.08 µM) of 0.499 and a relative viability (CAL-12T; first compound 0.8 µM) of 0.69. The relative viability (CAL-12T; first compound 2.53 µM) was 0.626, the relative viability (CAL-12T; first compound 8 µM) was 0.189 and the relative viability (NCI-H1944; first compound 0.08 µM) was 0.726. For the same molecule, the relative viability (NCI-H1944; first compound 0.8 µM) was 0.849, the relative viability (NCI-H1944; first compound 2.53 µM) was 0.882 and the relative viability (NCI-H1944; first compound 8 µM) was 0.78. The relative viability (NCI-H1395; first compound 0.08 µM) was 0.741, the relative viability (NCI-H1395; first compound 0.8 µM) was 0.928 and the relative viability (NCI-H1395; first compound 2.53 µM) was 0.783. It also gave a relative viability (NCI-H1395; first compound 8 µM) of 0.631, a relative viability (LC-2-ad; first compound 0.08 µM) of 0.892 and a relative viability (LC-2-ad; first compound 0.8 µM) of 1.28. The relative viability (LC-2-ad; first compound 2.53 µM) was 1.1, the relative viability (LC-2-ad; first compound 8 µM) was 0.806 and the relative viability (NCI-H1734; first compound 0.08 µM) was 0.201. For the same molecule, the relative viability (NCI-H1734; first compound 0.8 µM) was 0.208, the relative viability (NCI-H1734; first compound 2.53 µM) was 0.208 and the relative viability (NCI-H1734; first compound 8 µM) was 0.197. The relative viability (HCC-15; first compound 0.08 µM) was 0.243, the relative viability (HCC-15; first compound 0.8 µM) was 0.299 and the relative viability (HCC-15; first compound 2.53 µM) was 0.3. It also gave a relative viability (HCC-15; first compound 8 µM) of 0.302, a relative viability (LU99A; first compound 0.08 µM) of 0.273 and a relative viability (LU99A; first compound 0.8 µM) of 0.275. The relative viability (LU99A; first compound 2.53 µM) was 0.28, the relative viability (LU99A; first compound 8 µM) was 0.279 and the relative viability (COR-L 105; first compound 0.08 µM) was 0.778. The relative viability (COR-L 105; first compound 0.8 µM) was 0.894, the relative viability (COR-L 105; first compound 2.53 µM) was 0.737 and the relative viability (COR-L 105; first compound 8 µM) was 0.624. The relative viability (PC-14; first compound 0.08 µM) was 0.203, the relative viability (PC-14; first compound 0.8 µM) was 0.235 and the relative viability (PC-14; first compound 2.53 µM) was 0.211. The relative viability (PC-14; first compound 8 µM) was 0.167, the relative viability (NCI-H1975; first compound 0.08 µM) was 0.296 and the relative viability (NCI-H1975; first compound 0.8 µM) was 0.282. For the same molecule, the relative viability (NCI-H1975; first compound 2.53 µM) was 0.293, the relative viability (NCI-H1975; first compound 8 µM) was 0.2 and the relative viability (H3255; first compound 0.08 µM) was 0.848. It also gave a relative viability (H3255; first compound 0.8 µM) of 0.954, a relative viability (H3255; first compound 2.53 µM) of 0.935 and a relative viability (H3255; first compound 8 µM) of 0.965. The relative viability (NCI-H1666; first compound 0.08 µM) was 1.04, the relative viability (NCI-H1666; first compound 0.8 µM) was 1.01 and the relative viability (NCI-H1666; first compound 2.53 µM) was 1.04. It also gave a relative viability (NCI-H1666; first compound 8 µM) of 1.01, a relative viability (PC-3 [JPC-3]; first compound 0.08 µM) of 0.798 and a relative viability (PC-3 [JPC-3]; first compound 0.8 µM) of 0.752. The relative viability (PC-3 [JPC-3]; first compound 2.53 µM) was 0.724, the relative viability (PC-3 [JPC-3]; first compound 8 µM) was 0.599 and the relative viability (NCI-H520; first compound 0.08 µM) was 0.224. The relative viability (NCI-H520; first compound 0.8 µM) was 0.29, the relative viability (NCI-H520; first compound 2.53 µM) was 0.183 and the relative viability (NCI-H520; first compound 8 µM) was 0.235. For the same molecule, the relative viability (NCI-H3122; first compound 0.08 µM) was 0.068, the relative viability (NCI-H3122; first compound 0.8 µM) was 0.0941 and the relative viability (NCI-H3122; first compound 2.53 µM) was 0.0799. It also gave a relative viability (NCI-H3122; first compound 8 µM) of 0.0894, a relative viability (NCI-H647; first compound 0.08 µM) of 0.233 and a relative viability (NCI-H647; first compound 0.8 µM) of 0.326. It also gave a relative viability (NCI-H647; first compound 2.53 µM) of 0.138, a relative viability (NCI-H647; first compound 8 µM) of 0.132 and a relative viability (NCI-H1563; first compound 0.08 µM) of 0.568. It also gave a relative viability (NCI-H1563; first compound 0.8 µM) of 0.573, a relative viability (NCI-H1563; first compound 2.53 µM) of 0.526 and a relative viability (NCI-H1563; first compound 8 µM) of 0.487. For the same molecule, the relative viability (NCI-H661; first compound 0.08 µM) was 0.924, the relative viability (NCI-H661; first compound 0.8 µM) was 1 and the relative viability (NCI-H661; first compound 2.53 µM) was 0.897. For the same molecule, the relative viability (NCI-H661; first compound 8 µM) was 0.85, the relative viability (NCI-H838; first compound 0.08 µM) was 0.292 and the relative viability (NCI-H838; first compound 0.8 µM) was 0.449. It also gave a relative viability (NCI-H838; first compound 2.53 µM) of 0.362, a relative viability (NCI-H838; first compound 8 µM) of 0.244 and a relative viability (NCI-H1993; first compound 0.08 µM) of 0.848. For the same molecule, the relative viability (NCI-H1993; first compound 0.8 µM) was 0.763, the relative viability (NCI-H1993; first compound 2.53 µM) was 1.04 and the relative viability (NCI-H1993; first compound 8 µM) was 0.963. The relative viability (SK-LU-1; first compound 0.08 µM) was 0.206, the relative viability (SK-LU-1; first compound 0.8 µM) was 0.186 and the relative viability (SK-LU-1; first compound 2.53 µM) was 0.182. The relative viability (SK-LU-1; first compound 8 µM) was 0.204, the relative viability (HARA; first compound 0.08 µM) was 0.832 and the relative viability (HARA; first compound 0.8 µM) was 0.919. For the same molecule, the relative viability (HARA; first compound 2.53 µM) was 0.987, the relative viability (HARA; first compound 8 µM) was 0.821 and the relative viability (NCI-H2228; first compound 0.08 µM) was 0.148. For the same molecule, the relative viability (NCI-H2228; first compound 0.8 µM) was 0.13, the relative viability (NCI-H2228; first compound 2.53 µM) was 0.228 and the relative viability (NCI-H2228; first compound 8 µM) was 0.151.
